Assay results published in US10738062B2, “Chromane-substituted tetracyclic compounds and uses thereof for the treatment of viral diseases” (Merck Sharp & Dohme Corp., priority 2016, dated 2020).
pEC50: −log10 of the molar value. Read-outs that look alike come from different tables or passages of the source.

Assays:
Parameters in all cases: species or system Hepatitis C virus
Settings in all cases: replicon RNA by real time PCR, day 3
[1] = test system: HCV replicon 2B; test: Cell-based HCV replicon assay (Replicon Assay A), replicon 2B
Procedure: (§1) To measure cell-based anti-HCV activity of compounds of the present invention, two complimentary assays were employed using various replicons. In the first assay (“Replicon Assay A”), replicon cells were seeded at 2000 cells/well in 384-well 384-well flat bottom tissue culture treated clear bottom plate (Corning 3707) in the presence of the test compound. Various concentrations of test compound, typically in 10 serial dilutions, were added to the assay mixture, with the starting concentration ranging from 333.3 nM to 1.667 nM. The final concentration of DMSO was 0.5%. Fetal bovine serum was 5%, in the assay media. Cells were harvested on day 3 by removing media and washing the cells with a suitable wash buffer. The cells were lysed with the addition of 1× Qiagen lysis buffer (Cat #1062731). The replicon RNA level was measured using real time PCR (TaqMan® EZ RT-PCR, Applied Biosystems 403028) with the following primers and probes: […]
(§2) Cyclophilin RNA was used as endogenous control and was amplified in the same reaction as NS5B (multiplex PCR). The real-time RT-PCR reactions were run on ABI PRISM 7900HT Sequence Detection System using the following program: 50° C. for 2 minutes, 60° C. for 30 minutes, 95° C. for 5 minutes, 40 cycles of 94° C. for 20 sec, 55° C. for 1 minutes.
(§3) The amount of HCV replicon RNA per cell was quantified using a linear regression curve for a known nanogram (ng) amount of HCV replicon total RNA. This was established by plotting the Cycle Threshold values (Ct) from the Neo probe and primer set versus the log (ng) for each HCV replicon total RNA standard. The amount of HCV RNA for each replicon sample was calculated by taking the sample's Ct value, minus the line intercept, divided by the slope of the line. Similarly, the amount of Cyclophilin mRNA per cell was also quantified using a linear regression curve for a known nanogram (ng) amount of HCV replicon total RNA. Again, this was established by plotting the Cycle Threshold values (Ct) from the Cyclophilin probe and primer set versus the log (ng) for each HCV replicon total RNA standard.
(§4) The real-time RT-PCR reactions were run on ABI PRISM 7900HT or Viia7 Sequence Detection System using the following program: 48° C. for 30 minutes, 95° C. for 10 minutes, 40 cycles of 95° C. for 15 sec, 60° C. for 1 minutes. The 50% effective concentration (EC50) was the drug concentration necessary to achieve an increase in the cycle threshold (CT) of 1 over the projected baseline CT.
(§5) Data was obtained for various compounds of the present invention using the methods described in the Example above, and is presented in the table immediately below. EC50 data for replicons 1A, 1AY93H and 2B were obtained using Replicon Assay A and EC50 data for replicon 1B was obtained using Replicon Assay B.

[2] = test system: HCV replicon 1A Y93H; test: Cell-based HCV replicon assay (Replicon Assay A), replicon 1AY93H
Procedure: as §1, §2, §3, §4, §5

[3] = test system: HCV replicon 1A; test: Cell-based HCV replicon assay (Replicon Assay A), replicon 1A
Procedure: as §1, §2, §3, §4, §5

[4] = read-out: EC50 replicon 2B, Replicon Assay A
[5] = read-out: EC50 replicon 1A Y93H, Replicon Assay A
[6] = Hepatitis C virus, 72 h, read-out: EC50 replicon 2B, Replicon Assay A

COC(=O)N[C@H](C(=O)N1CCC[C@H]1c1ncc(-c2cc(F)c3c(c2)OC(c2ccc4c(c2)CC2CC2(C)O4)n2c-3cc3cc(-c4cnc([C@@H]5CCCN5C(=O)[C@@H](NC(=O)OC)C(C)C)[nH]4)ccc32)[nH]1)C(C)C (single isomer, unassigned) [Compound 26]
pEC50 [1, 4]: 8.85 | pEC50 [2, 5]: 9.46 | pEC50 [3]: 11.55

COC(=O)N[C@H](C(=O)N1CCC[C@H]1c1ncc(-c2cc(F)c3c(c2)OC(c2ccc4c(c2)OC(C)(C)C4)n2c-3cc3cc(-c4cnc([C@@H]5CCCN5C(=O)[C@@H](NC(=O)OC)C(C)C)[nH]4)ccc32)[nH]1)C(C)C (single isomer, unassigned) [Compound 27]
pEC50 [1, 4]: 8.83 | pEC50 [2, 5]: 8.96 | pEC50 ([3]; Hepatitis C virus, 72 h): 11.85

COC(=O)N[C@H](C(=O)N1CCC[C@H]1c1ncc(-c2cc(F)c3c(c2)OC(c2ccc4c(c2)CCCO4)n2c-3cc3cc(-c4cnc([C@@H]5CCCN5C(=O)[C@@H](NC(=O)OC)C5CCOCC5)[nH]4)ccc32)[nH]1)C(C)C (single isomer, unassigned) [Compound 36]
pEC50 [1, 4]: 9.38 | pEC50 [2, 5]: 9.37 | pEC50 [3]: 11.68

COC(=O)N[C@H](C(=O)N1CCC[C@H]1c1ncc(-c2cc(F)c3c(c2)OC(c2ccc4c(c2)CCCO4)n2c-3cc3cc(-c4cnc([C@@H]5C[C@H]6C[C@H]6N5C(=O)[C@@H](NC(=O)OC)C(C)C)[nH]4)ccc32)[nH]1)C(C)C (single isomer, unassigned) [Compound 45]
pEC50 [1, 6]: 8.28 | pEC50 [2, 5]: 9.92 | pEC50 [3]: 12.00

COC(=O)N[C@H](C(=O)N1CCC[C@H]1c1ncc(-c2cc(F)c3c(c2)OC(c2ccc4c(c2)CCCO4)n2c-3cc3cc(-c4cnc([C@@H]5C[C@H]6C[C@H]6N5C(=O)[C@@H](NC(=O)OC)C(C)C)[nH]4)ccc32)[nH]1)C(C)C (single isomer, unassigned) [Compound 46]
pEC50 [1, 4]: 8.11 | pEC50 [2, 5]: 8.38 | pEC50 [3]: 11.59

COC(=O)N[C@H](C(=O)N1CCC[C@H]1c1ncc(-c2ccc3c(c2)OC(c2ccc4c(c2)OCCC4)n2c-3cc3cc(-c4cnc([C@@H]5C[C@H]6C[C@H]6N5C(=O)[C@@H](NC(=O)OC)C(C)C)[nH]4)ccc32)[nH]1)C(C)C (single isomer, unassigned) [Compound 49]
pEC50 [1, 4]: 9.09 | pEC50 [2, 5]: 8.61 | pEC50 ([3]; Hepatitis C virus, 72 h): 11.80

COC(=O)NC(C(=O)N1CCC[C@H]1c1ncc(-c2ccc3c(c2)cc2n3C(c3ccc4c(c3)CCC(C)O4)Oc3cc(-c4cnc([C@@H]5CCCN5C(=O)[C@@H](NC(=O)OC)C(C)C)[nH]4)cc(F)c3-2)[nH]1)C1C[C@@H](C)O[C@@H](C)C1 (single isomer, unassigned) [Compound 55]
pEC50 [1, 4]: 8.90 | pEC50 [2, 5]: 8.73 | pEC50 ([3]; Hepatitis C virus, 72 h): 11.72

COC(=O)NC(C(=O)N1CCC[C@H]1c1ncc(-c2ccc3c(c2)cc2n3C(c3ccc4c(c3)CCC(C)O4)Oc3cc(-c4cnc([C@@H]5CCCN5C(=O)[C@@H](NC(=O)OC)C(C)C)[nH]4)cc(F)c3-2)[nH]1)C1C[C@@H](C)O[C@@H](C)C1 (single isomer, unassigned) [Compound 56]
pEC50 [1, 4]: 9.54 | pEC50 [2, 5]: 9.94 | pEC50 [3]: 11.62

COC(=O)NC(C(=O)N1CCC[C@H]1c1ncc(-c2ccc3c(c2)cc2n3C(c3ccc4c(c3)OC(C)CC4)Oc3cc(-c4cnc([C@@H]5CCCN5C(=O)[C@@H](NC(=O)OC)C(C)C)[nH]4)cc(F)c3-2)[nH]1)C1C[C@@H](C)O[C@@H](C)C1 (single isomer, unassigned) [Compound 57]
pEC50 [1, 4]: 9.48 | pEC50 [2, 5]: 9.16 | pEC50 ([3]; Hepatitis C virus, 72 h): 11.70

COC(=O)NC(C(=O)N1CCC[C@H]1c1ncc(-c2ccc3c(c2)cc2n3C(c3ccc4c(c3)OC(C)CC4)Oc3cc(-c4cnc([C@@H]5CCCN5C(=O)[C@@H](NC(=O)OC)C(C)C)[nH]4)cc(F)c3-2)[nH]1)C1C[C@@H](C)O[C@@H](C)C1 (single isomer, unassigned) [Compound 58]
pEC50 [1, 4]: 9.39 | pEC50 [2, 5]: 8.96 | pEC50 [3]: 11.66

COC(=O)NC(C(=O)N1CCC[C@H]1c1ncc(-c2ccc3c(c2)cc2n3C(c3ccc4c(c3)OC(C)CC4)Oc3cc(-c4cnc([C@@H]5CCCN5C(=O)[C@@H](NC(=O)OC)C(C)C)[nH]4)cc(F)c3-2)[nH]1)C1CCOC(C)(C)C1 (single isomer, unassigned) [Compound 61]
pEC50 [1, 4]: 9.67 | pEC50 [2, 5]: 8.83 | pEC50 ([3]; Hepatitis C virus, 72 h): 11.64

COC(=O)NC(C(=O)N1CCC[C@H]1c1ncc(-c2ccc3c(c2)cc2n3C(c3ccc4c(c3)OC(C)CC4)Oc3cc(-c4cnc([C@@H]5CCCN5C(=O)[C@@H](NC(=O)OC)C(C)C)[nH]4)cc(F)c3-2)[nH]1)C1CCOC(C)(C)C1 (single isomer, unassigned) [Compound 62]
pEC50 [1, 4]: 9.60 | pEC50 [2, 5]: 9.29 | pEC50 [3]: 11.72

COC(=O)NC(C(=O)N1[C@@H]2C[C@@H]2C[C@H]1c1ncc(-c2ccc3c(c2)cc2n3C(c3ccc4c(c3)CCCO4)Oc3cc(-c4cnc([C@@H]5CCCN5C(=O)[C@@H](NC(=O)OC)C(C)C)[nH]4)cc(F)c3-2)[nH]1)C1C[C@@H](C)O[C@@H](C)C1 (single isomer, unassigned) [Compound 66]
pEC50 [1, 4]: 8.63 | pEC50 [2, 5]: 9.76 | pEC50 [3]: 11.47

COC(=O)NC(C(=O)N1[C@@H]2C[C@@H]2C[C@H]1c1ncc(-c2ccc3c(c2)cc2n3C(c3ccc4c(c3)OCCC4)Oc3cc(-c4cnc([C@@H]5CCCN5C(=O)[C@@H](NC(=O)OC)C(C)C)[nH]4)cc(F)c3-2)[nH]1)C1C[C@@H](C)O[C@@H](C)C1 (single isomer, unassigned) [Compound 67]
pEC50 [1, 4]: 9.22 | pEC50 [2, 5]: 9.41 | pEC50 ([3]; Hepatitis C virus, 72 h): 11.92

COC(=O)NC(C(=O)N1CCC[C@H]1c1ncc(-c2ccc3c(c2)cc2n3C(c3ccc4c(c3)CCCO4)Oc3cc(-c4cnc([C@@H]5CCCN5C(=O)[C@@H](NC(=O)OC)C(C)C)[nH]4)cc(F)c3-2)[nH]1)C1C[C@@H](C)O[C@@H](C)C1 (single isomer, unassigned) [Compound 73]
pEC50 [1, 4]: 9.10 | pEC50 [2, 5]: 8.87 | pEC50 ([3]; Hepatitis C virus, 72 h): 11.51

COC(=O)NC(C(=O)N1CCC[C@H]1c1ncc(-c2ccc3c(c2)cc2n3C(c3ccc4c(c3)CCCO4)Oc3cc(-c4cnc([C@@H]5CCCN5C(=O)[C@@H](NC(=O)OC)C(C)C)[nH]4)cc(F)c3-2)[nH]1)C1C[C@@H](C)O[C@@H](C)C1 (single isomer, unassigned) [Compound 74]
pEC50 [1, 4]: 9.63 | pEC50 [2, 5]: 10.04 | pEC50 [3]: 11.60

COC(=O)NC(C(=O)N1CCC[C@H]1c1ncc(-c2ccc3c(c2)cc2n3C(c3ccc4c(c3)OCCC4)Oc3cc(-c4cnc([C@@H]5CCCN5C(=O)[C@@H](NC(=O)OC)C(C)C)[nH]4)cc(F)c3-2)[nH]1)C1C[C@@H](C)O[C@@H](C)C1 (single isomer, unassigned) [Compound 75]
pEC50 [1, 4]: 9.53 | pEC50 [2, 5]: 8.89 | pEC50 ([3]; Hepatitis C virus, 72 h): 11.74

COC(=O)NC(C(=O)N1CCC[C@H]1c1ncc(-c2ccc3c(c2)cc2n3C(c3ccc4c(c3)OCCC4)Oc3cc(-c4cnc([C@@H]5CCCN5C(=O)[C@@H](NC(=O)OC)C(C)C)[nH]4)cc(F)c3-2)[nH]1)C1C[C@@H](C)O[C@H](C)C1 (single isomer, unassigned) [Compound 77]
pEC50 [1, 4]: 10.00 | pEC50 [2, 5]: 9.30 | pEC50 ([3]; Hepatitis C virus, 72 h): 11.82

COC(=O)NC(C(=O)N1[C@@H]2C[C@@H]2C[C@H]1c1ncc(-c2ccc3c(c2)cc2n3C(c3ccc4c(c3)OCCC4)Oc3cc(-c4cnc([C@@H]5CCCN5C(=O)[C@@H](NC(=O)OC)C(C)C)[nH]4)cc(F)c3-2)[nH]1)C1CCO[C@H](C)C1 (single isomer, unassigned) [Compound 81]
pEC50 [1, 4]: 9.57 | pEC50 [2, 5]: 9.73 | pEC50 ([3]; Hepatitis C virus, 72 h): 11.70

COC(=O)NC(C(=O)N1CCC[C@H]1c1ncc(-c2ccc3c(c2)cc2n3C(c3ccc4c(c3)CCCO4)Oc3cc(-c4cnc([C@@H]5CCCN5C(=O)[C@@H](NC(=O)OC)C(C)C)[nH]4)cc(C)c3-2)[nH]1)C1C[C@@H](C)O[C@@H](C)C1 (single isomer, unassigned) [Compound 83]
pEC50 [1, 6]: 9.80 | pEC50 ([2]; Hepatitis C virus, 72 h, read-out: EC50 replicon 1A Y93H, Replicon Assay A): 9.23 | pEC50 ([3]; Hepatitis C virus, 72 h): 11.41
